Paper PMC6941357, “An in vitro toolbox to accelerate anti-malarial drug discovery and development” (Malaria Journal, 2020)
Where “and” joins values, the source holds several entries; their conditions need not be identical. Equal values may be shown once. Read-outs that look alike come from different tables or passages of the source.

Legend:
[1] = Plasma protein binding via rapid equilibrium dialysis (RED), 10% plasma; assay type: in vitro ADME, human; conditions: human, 10% pooled plasma (diluted 1:10), pH 7.4, RED, 10% plasma corrected for dilution; for fraction unbound at 24 h: presaturation of device and 24 h dialysis; for fraction unbound at 6 h: 6 h dialysis
Description: (§1) Pooled human plasma (n = 3–4 donors) was obtained by centrifugation of blood (collected by the Australian Red Cross Blood Service, Melbourne, Australia or the Volunteer Blood Donor Registry, Clinical Translation Centre, Walter & Eliza Hall Institute of Medical Research, Parkville, Australia), or sourcing pooled plasma directly from commercial sources (Innovative Research Inc, MI) and stored frozen at − 80 °C.
(§2) Plasma was diluted 1:10 with pH 7.4 phosphate buffer (prepared by mixing 0.1 M sodium dihydrogen phosphate and 0.1 M disodium hydrogen phosphate (both containing 0.04 M NaCl) to pH 7.4) and spiked with compound to achieve a total measured concentration of ~ 1000–3000 ng/mL. Diluted plasma was vortex mixed briefly and aliquots (n = 3–4) were transferred to RED (Thermo Fisher Scientific, Waltham, MA) units that were placed at 37 °C under ambient atmosphere on a plate shaker. […] At the end of the dialysis period, samples were removed from both the donor and dialysate chambers of the RED units. […] Fraction unbound values were calculated for each individual RED unit and the mean and SD calculated for n = 3–4 replicates.
(§3) Briefly, the RED device was exposed for two 30 min periods and one overnight period to fresh solutions of compound prepared in pH 7.4 buffer at approximately 10% of the total dialysis concentration. Following the preincubations, solutions were removed from the RED device and discarded. […] Samples were removed and analysed as described above.
(§4) For binding assessments using 10% plasma, the unbound fraction (fu) in neat plasma was calculated using the average values for Ctotal and Cunbound and Eq.

Caco-2 cell monolayers [2] = conditions: cited from earlier work; for A–B Papp / B–A Papp: matrix: human plasma, corrected for fu; for Literature Papp: Caco-2 A-B, ref [33]–[35] of Additional file 1
[3] = Bidirectional permeability across Caco-2 cell monolayers; conditions: human
Description: (§5) Bidirectional permeability was assessed across Caco-2 cell monolayers as described previously. Briefly, permeability experiments were performed using either aqueous transport buffer (pH 7.4 Hanks balanced salt solution containing 20 mM HEPES) or human plasma (Australian Red Cross Blood Service) in both the apical and basolateral chambers. […] The final DMSO concentration in the donor solution was 0.1% v/v.
(§6) Samples from the donor chamber were taken at the start and end of the experiment. […] Donor and acceptor samples were stored frozen at − 80 °C until analysis by LC–MS (Additional file 1: Table S2) with sample preparation as described previously. The mass balance and apparent permeability coefficient (Papp) were calculated as previously described.
(§7) Where human plasma was used as the transport medium, Papp values were calculated as shown above, with correction for the fraction unbound (fu) in the donor solution Cdonorinitial×fu with fu determined at a similar concentration to that used in the transport experiment. The apparent flux of lucifer yellow was based on an endpoint measurement assuming no lag time. The efflux ratio was calculated as the ratio of the mean B–A to A–B Papp values.

[4] = Blood to plasma partitioning; assay type: in vitro ADME, human; conditions: human, whole blood, pH 7.4, human whole blood, 37 °C; read-out: B/P (whole blood to plasma partitioning ratio)
Description: Human whole blood was collected and supplied by the Volunteer Blood Donor Registry (Clinical Translation Centre, Walter & Eliza Hall Institute of Medical Research, Parkville, Australia) and used on the day of collection. The haematocrit (Hct) was determined by centrifugation (13,000×g for 3 min using Clemets® Microhaematocrit centrifuge and Safecap® Plain Self-sealing Mylar wrapped capillary tubes) to ensure it was between 0.40 and 0.48. An aliquot was centrifuged (Heraeus, Multifuge 3 S-R; 4500×g) for 10 min to obtain plasma required for matrix matching purposes as described below.
Two aliquots of the spiked whole blood were transferred to fresh microcentrifuge tubes and maintained at 37 °C/5% CO2 in a humidified incubator. The pH was confirmed to be 7.4 ± 0.1 at the start and end of the incubation. At each time point (30 min and 4 h), one whole blood tube was removed from the incubator and mixed by gentle inversion, after which four replicate blood samples were taken and matrix matched with an equal volume of blank plasma. The remainder of the blood sample was centrifuged (Eppendorf, Mini Spin plus; 6700×g) for 2 min for the collection of 4 replicate plasma samples which were similarly matrix matched with an equal volume of blank whole blood. The 1:1 mixtures of blood/plasma were mixed, snap frozen in dry ice and stored at − 80 °C until analysis by LC–MS (Additional file 1: Table S2) against calibration standards prepared in the same mixed matrix. Any further distribution of compound into RBCs at this stage was irrelevant as the cells were lysed during the sample preparation and the total concentration in the mixed matrix was measured for both the calibration standards and samples.
The apparent whole blood-to-plasma partitioning ratio (B/P) was calculated as the ratio of the average concentration in the blood sample to that in the plasma fraction of the same whole blood sample. A standard deviation (SD) for each B/P value was calculated using the propagation of errors approach as described previously.

Caco-2 cell monolayers [5] = test: Bidirectional permeability across Caco-2 cell monolayers; conditions: matrix: pH 7.4 buffer
Description: as §5, §6, §7

[6] = Binding in DMEM with 10% FCS via ultracentrifugation; assay type: in vitro ADME, calf; conditions: bovine, DMEM with 10% FCS, pH 7.4
Description: Dulbecco’s Modified Eagle’s Medium (DMEM) containing GlutaMAX-I was purchased from Invitrogen (Thermo Fisher Scientific) and stored at 4 °C. Medium was prepared by adding heat inactivated foetal calf serum (FCS, final 10% v/v), penicillin (final 100 U/mL), streptomycin (final 100 µg/mL) D-glucose (final 4.0 mg/mL) and sodium pyruvate (final 0.1 mg/mL).
An ultracentrifugation method adapted from a previous publication was initially used to assess plasma protein binding and binding in the other media. […] Additional ultracentrifuge tubes containing spiked matrix were maintained at 37 °C, 5% or 10% CO2 or normal atmosphere conditions, with aliquots being taken within 0.5 h of the start and at the end of ultracentrifugation to serve as controls for the assessment of stability and to obtain a measure of the total concentration (Ctotal). Following ultracentrifugation, the pH was checked and an aliquot of protein-free supernate was taken from each ultracentrifuge tube for determination of the unbound concentration (Cunbound).
Total matrix and protein free samples were analysed using a matrix matching approach whereby each sample was mixed in a 1:1 ratio with the opposite blank medium (i.e. blank total matrix or blank protein free buffer). For example, plasma samples were mixed with blank pH 7.4 buffer whereas plasma supernatant samples were mixed with blank plasma. Each of the sample sets were then assayed against a common calibration curve prepared in a 1:1 mixture of total matrix and protein free pH 7.4 buffer. […] The standard deviation for fu was calculated using the propagation of errors approach as described previously. The potential for compound degradation was assessed by comparing the average value for Ctotal at the start and end of the experiment.

human plasma = test: Plasma protein binding via rapid equilibrium dialysis (RED), 10% plasma; assay type: in vitro ADME; conditions: RED, 10% plasma corrected for dilution, 6 h dialysis
Description: as §1, §2, §3, §4

[7] = Caco-2, A–B Papp, matrix: human plasma, corrected for fu
[8] = Caco-2, pH 7.4, A–B Papp, matrix: pH 7.4 buffer

Structure (SMILES)	fraction unbound at 24 h [1]	fraction unbound at 6 h [1]	Papp B→A ([3]; Caco-2, pH 7.4)	Papp A→B [3, 8]	A–B Papp (Caco-2 cell monolayers [5])	other results
CCCCN(CCCC)CCC(O)c1cc2c(Cl)cc(Cl)cc2c2cc(C(F)(F)F)ccc12 (stereo not drawn) [Halofantrine]	< 0.0001					A–B Papp (Caco-2 cell monolayers [2]): > 300 10^−6 cm/s; B–A Papp (Caco-2 cell monolayers [2]): > 300 10^−6 cm/s
CC(C)(N)CNC(=O)C[C@H]1CC[C@]2(CC1)OO[C@]1(O2)C2CC3CC(C2)CC1C3 [OZ277, Arterolane]		0.056				Papp B→A ([3]; Caco-2): 70 ± 0.38 ×10⁻⁶ cm/s; Papp A→B [3, 7]: 42 ± 2.8 ×10⁻⁶ cm/s
Cc1nc(Nc2ncc(N3CCN(C)[C@H](C)C3)c(Nc3cc(C)n(C)n3)n2)cc(C2CC2)c1F [MMV253]	0.017 ± 0.0002					Papp B→A ([3]; Caco-2): 150 ± 23 ×10⁻⁶ cm/s; efflux ratio ([3]; Caco-2): 1; Papp A→B [3, 7]: 150 ± 29 ×10⁻⁶ cm/s; blood plasma ratio at 1000 ng/mL [4]: 1 ± 0.05
CCCCN(CCCC)CC(O)c1cc(Cl)cc2c1-c1ccc(Cl)cc1/C2=C/c1ccc(Cl)cc1 (stereo not drawn) [Lumefantrine]	< 0.0001	< 0.0001				blood plasma ratio at 1000 ng/mL [4]: 0.48 ± 0.09
[H]/N=C(\N/C(=N/[H])Nc1ccc(Cl)cc1)NC(C)C [Proguanil]			7.9 ± 0.51 ×10⁻⁶ cm/s	< 5 ×10⁻⁶ cm/s	3.5 ± 0.75 10^−6 cm/s	
CC1(C)N=C(N)N=C(N)N1c1ccc(Cl)cc1 [Cycloguanil]			0.77 ± 0.05 ×10⁻⁶ cm/s		1.2 ± 0.070 10^−6 cm/s	A–B Papp (Caco-2 cell monolayers [5]; listed as cycloguanil): < 5 10^−6 cm/s; fraction unbound at […], 1000 ng/mL [6]: 0.94 ± 0.064
C[C@H]1[C@@H](O)O[C@@H]2O[C@@]3(C)CC[C@H]4[C@H](C)CC[C@@H]1[C@@]24OO3 [Dihydroartemisinin]			49 ± 1.2 ×10⁻⁶ cm/s	50 ± 2.3 ×10⁻⁶ cm/s		Literature Papp (Caco-2 cell monolayers [2]): 38.6 ± 5.0 10-6 cm/sec
N#Cc1cc(NC(=O)[C@H]2c3ccccc3C(=O)N(CC(F)(F)F)[C@@H]2c2cccnc2)ccc1F [SJ733]	0.085 ± 0.012	0.1	50 ± 2 ×10⁻⁶ cm/s	14 ×10⁻⁶ cm/s	13.4 10^−6 cm/s	
CS(=O)(=O)c1ccc(-c2cnc(N)c(-c3ccc(C(F)(F)F)nc3)c2)cc1 [MMV048]		0.11 ± 0.007	53 ± 1.9 ×10⁻⁶ cm/s	41 ± 2.1 ×10⁻⁶ cm/s		fraction unbound at […], 1000 ng/mL [6]: 0.653 ± 0.06
OC(c1cc(C(F)(F)F)nc2c(C(F)(F)F)cccc12)C1CCCCN1 (stereo not drawn) [Mefloquine]						Literature ER (Caco-2 cell monolayers [2]; Caco-2, ref [33], [35] of Additional file 1): 0.7; Literature Papp (Caco-2 cell monolayers [2]): 9.9 ± 0.7 10-6 cm/sec; A–B Papp (Caco-2 cell monolayers [2]): 180 ± 20 10^−6 cm/s; B–A Papp (Caco-2 cell monolayers [2]): 150 ± 10 10^−6 cm/s
CC[C@H]1OC(=O)[C@H](C)[C@@H](O[C@H]2C[C@@](C)(OC)[C@@H](O)[C@H](C)O2)[C@H](C)[C@@H](O[C@@H]2O[C@H](C)C[C@H](N(C)C)[C@H]2O)[C@](C)(O)C[C@@H](C)CN(C)[C@H](C)[C@@H](O)[C@]1(C)O [Azithromycin]		0.34	13 ± 3.9 ×10⁻⁶ cm/s		0.37 10^−6 cm/s and 0.38 10^−6 cm/s	A–B Papp (Caco-2 cell monolayers [5]; listed as azithromycin): < 5 10^−6 cm/s; Fraction unbound, human plasma (human plasma): 0.35
